Measured values: patent US11174235B2, “Carboxy alkyl-ester anti-agglomerants for the control of natural gas hydrates” (ChampionX USA Inc., priority 2018, dated 2021)

Assay: Sapphire rocking cell anti-agglomerant test
Conditions: dose needed for a pass ranking
Procedure: A Sapphire Rocking Cell RCS is commercially available from PSL Systemtechnik in Germany. The Sapphire Rocking Cell is a laboratory instrument used to test the performance of low dosage hydrate inhibitors. The compounds were evaluated based on their ability to effectively minimize the size of gas hydrate agglomerate particles and disperse those particles into the hydrocarbon phase. Chemical performance was evaluated by determining the maximum treatable water cut (water to oil ratio) and the minimum chemical dosage to register a pass in the rocking cell test.
A rocking cell has two parts, a manifold and a cell body. The manifold is made up of stainless steel fittings that are welded together. It has three stems. An inlet stem is used to charge gas into the cell. An outlet stem is used to release the gas out of the cell. The third stem connects to a transducer, which measures the pressure inside of the cell. The cell body has three layers. The outer layer is a polycarbonate tube, which has a thickness of 0.7 cm. The middle layer is made of stainless steel metal and is connected to the manifold. The inner layer is a high-pressure sapphire tube, which has an outer diameter of 2.8 cm, inner diameter of 1.85 cm, and length of 5 cm. This sapphire tube can handle up to 3000 psi. A stainless steel ball which has a diameter of 1.6 cm is located inside the sapphire tube to induce turbulence and mix fluids during the rocking process.
Test fluids usually contain three components. For the anti-agglomerate test, 7.2 mL of warm crude oil was first injected into the cell. Next, a solution of 30,000 total dissolved solids (TDS) ([…]) of NaCl synthetic brine was injected into the cell to make a 40% water cut mixture. The anti-agglomerate test compound was the final component injected into the cell. The dosage of the test compound was based on the volume of aqueous phase. The initial temperature was set to 21° C. Observations were made every two to three hours, before the rocking was stopped, and also immediately after the restart.
Each cell was charged with Green Canyon gas and pressurized up to 2500 psi. All cells rocked for at least 1.5 to 2 hours until fluid was saturated and pressure stabilized. The rocking was ceased and the tank temperature was reduced to the set point of 4° C. over approximately 8 hours. The cells were then reboosted to a pressure of 2500 psi and remained static for 24 hours. Rocking was restarted for 2 hours with frequent observations to rank each cell with a ranked set of pass/fail criterion. Pressure and tank temperature data was recorded during this time.
The pass/fail criteria are based on the ability of the ball in the rocking cell to move within the sapphire tube. […] In contrast, the anti-agglomerant fails if the ball's movement is obstructed or completely stopped by the formation of gas hydrate agglomerates. The anti-agglomerate's performance is borderline when there are observable gas hydrate agglomerates and at least some of the agglomerates are stuck to the walls of the sapphire tube; when these agglomerates are present and the movement of the ball is not restricted, the anti-agglomerant ranking is a borderline pass.

Row | Compound | Minimum Effective Dose (MED) (Oil B (25% w/c)) [vol. %] | Minimum Effective Dose (MED) (Oil C (35% w/c)) [vol. %] | Minimum Effective Dose (MED) (Oil D (25% w/c)) [vol. %]
1 | CCCCCCCCCCCCOC(=O)C(CC(=O)O)NCCCN1CCCCCC1 (stereo not drawn) [Reaction 26] | 2.0 | >3.0 | 2.0
2 | CCCCN(CCCC)CCCN(CCC(=O)O)C(CC(=O)O)C(=O)OCCCCCCCCCCC(C)C (stereo not drawn) [Reaction 24] | 2.0 | 3.0 | 2.0
